Test results published in publication PMC4936967 (Molecular cancer therapeutics, 2016).

How the values were obtained:
GSK3β = GSK3β (Homo sapiens, UniProt P49841); experiment: radioactive […]-ATP in vitro kinase assay, 10-dose IC50, […] ATP; format: biochemical
GSK3α = GSK3α (Homo sapiens, UniProt P49840); experiment: as above; format: biochemical
GSK3α, sequence (P49840 2-483): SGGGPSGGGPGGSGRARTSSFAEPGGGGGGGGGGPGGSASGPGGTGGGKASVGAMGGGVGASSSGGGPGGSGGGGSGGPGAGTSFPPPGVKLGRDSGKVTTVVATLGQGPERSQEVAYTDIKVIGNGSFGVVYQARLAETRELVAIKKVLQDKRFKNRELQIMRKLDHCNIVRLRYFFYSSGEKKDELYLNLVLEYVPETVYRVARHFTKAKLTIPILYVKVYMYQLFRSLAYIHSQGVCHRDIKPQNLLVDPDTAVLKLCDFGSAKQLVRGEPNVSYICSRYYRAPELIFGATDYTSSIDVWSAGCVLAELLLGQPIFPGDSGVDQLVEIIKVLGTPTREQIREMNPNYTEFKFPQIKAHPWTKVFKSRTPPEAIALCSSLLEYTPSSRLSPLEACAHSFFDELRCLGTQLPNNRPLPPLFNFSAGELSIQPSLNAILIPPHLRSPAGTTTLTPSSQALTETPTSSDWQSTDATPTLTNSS

GSK3β, sequence (P49841 whole entry): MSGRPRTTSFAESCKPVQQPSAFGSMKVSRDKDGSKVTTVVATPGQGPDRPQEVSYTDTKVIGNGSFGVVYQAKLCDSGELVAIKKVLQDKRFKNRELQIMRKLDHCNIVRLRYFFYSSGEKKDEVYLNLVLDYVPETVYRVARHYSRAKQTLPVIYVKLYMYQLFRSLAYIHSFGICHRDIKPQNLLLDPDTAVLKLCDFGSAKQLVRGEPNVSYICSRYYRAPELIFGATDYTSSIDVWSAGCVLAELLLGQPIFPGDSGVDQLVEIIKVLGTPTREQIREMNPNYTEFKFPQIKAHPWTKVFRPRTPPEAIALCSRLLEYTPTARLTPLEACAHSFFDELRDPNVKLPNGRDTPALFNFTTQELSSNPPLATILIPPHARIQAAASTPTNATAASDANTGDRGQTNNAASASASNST

GS87
IC50 (GSK3β): 521 nM
IC50 (GSK3α): 415 nM
